Test results from patent publication US20260216180A1, “QUINOLINE DERIVATIVE COMPOUNDS OR PHARMACEUTICALLY ACCEPTABLE SALT THEREOF, PREPARATION METHOD THEREFOR AND USE THEREOF” (JIANGSU CAREPHAR PHARMACEUTICAL CO.,LTD., priority 2023, published 2026).

Test system: miR-124
Test: Regulation of miR-124 expression in a PBMC in vitro model (qPCR)
Type: cell-based
Conditions: 5 μM test compound, 24 h, human PBMC stimulated with PHA-L and IL-2; miR-191 internal reference; read-out: Relative expression of miR-124, fold change compared with DMSO-treated cells
Method: Pharmacological Activity Test: Regulation of miR-124 Expression by the Quinoline Derivatives in a PBMC In Vitro Model
• a. human PBMC cells • b. PHA-L • c. IL-2 • d. mirVana™ miRNA Extraction kit • e. TaqMan Advanced miRNA cDNA Synthesis Kit • f. TaqMan Fast Gene Expression Master Mix • g. TaqMan Advanced miRNA Assay (mir191) • h. TaqMan Advanced miRNA Assay (mir124)
Human PBMC cells were resuscitated. The cell suspension was transferred to a 75 cm^2 culture flask containing 13 mL of culture medium. The cells were cultured overnight in a 37° C., 5% CO2 incubator. The cell suspension was then collected in a conical flask, centrifuged at 1200 rpm for 5 minutes, and the supernatant was discarded. The cells were resuspended in 1 mL of fresh culture medium, and then the cell clumps were gently blown apart and inoculated into a 6-well plate at a density of 4*10^6 cells/mL. 5 μg/mL PHA-L and 10 ng/mL IL-2 were added to each well. The cells were incubated in the incubator for 48 hours. 5 μM of the test compound was added to each well of a 6-well plate, and 0.1% DMSO was added to the blank control wells, and the plate was incubated at 37° C. for 24 h. Cells were collected, Total RNA was isolated and extracted according to the procedure of the mirVana™ miRNA Extraction Kit, and cDNA was prepared according to the procedure of the TaqMan Advanced miRNA cDNA Synthesis Kit. MiR-191 was used as the internal reference gene for qPCR test.
That is, RNA sample→poly (A) tailing reaction→adapter reaction→reverse transcription (RT) reaction→miR-amplification reaction→qPCR test.
The qPCR procedure includes: 50° C. 2 min; 95° C. 20 s; 95° C. 1 s, a 60° C. 20 s, 40 cycles.
The relative gene expression was calculated using the following formula: ΔCt=Ct (miR-124)−Ct (miR-191)
Relative miRNA expression=2^−ΔCt.

Fc1cc(Cl)c2nc(Nc3ccc(C4(C(F)(F)F)CC4)cc3)ccc2c1 [Compound 18, 8-chloro-6-fluoro-N-(4-(1-(trifluoromethyl)cyclopropyl)phenyl)quinolin-2-amine]
fold induction at 5 µM: 125
